Measured values as given in PubChem BioAssay AID252 (DTP/NCI, 2004).
Values joined by “and” are separate entries in the source; they are usually repeats but may differ in a detail not shown here. Identical values can stand only once. Toxic doses and inconclusive results are not listed.

Test system: BDF1 mice, intracerebral L1210 leukemia, survival T/C
Assay: NCI In Vivo Anticancer Drug Screen. Data for tumor model L1210 Leukemia (intracerebral) in B6D2F1 (BDF1) mice
Conditions: higher = longer survival
Procedure: The antitumor activity of compounds was measured in mice bearing transplantable tumors. Survival or tumor size were measured and the results are expressed as the measurement made in the treated group (T) divided by the measurement made in the vehicle treated control group (C). The tumor model used in this assay is L1210 Leukemia (intracerebral) in B6D2F1 (BDF1) mice

## O=NN(CCCl)C(=O)N[C@H]1CCCC[C@@H]1Cl
endpoint: mean survival time, dose: 5.0 mg/kg/injection, schedule: Q01DX001 (ip), vehicle: other
  T/C: 102 % of control and 96 % of control
endpoint: mean survival time, dose: 10.0 mg/kg/injection, schedule: Q01DX001 (ip), vehicle: other
  T/C: 106 % of control and 113 % of control
endpoint: mean survival time, dose: 13.0 mg/kg/injection, schedule: Q01DX001 (ip), vehicle: carboxymethylcellulose (CMC)
  T/C: 120 % of control
endpoint: mean survival time, dose: 13.75 mg/kg/injection, schedule: Q01DX001 (oral), vehicle: other
  T/C: 190 % of control and 226 % of control and 230 % of control
endpoint: mean survival time, dose: 15.25 mg/kg/injection, schedule: Q01DX001 (ip), vehicle: other
  T/C: 158 % of control and 165 % of control and 216 % of control
endpoint: mean survival time, dose: 19.0 mg/kg/injection, schedule: Q01DX001 (ip), vehicle: carboxymethylcellulose (CMC)
  T/C: 152 % of control
endpoint: mean survival time, dose: 20.0 mg/kg/injection, schedule: Q01DX001 (ip), vehicle: other
  T/C: 175 % of control and 181 % of control
endpoint: mean survival time, dose: 26.0 mg/kg/injection, schedule: Q01DX001 (ip), vehicle: carboxymethylcellulose (CMC)
  T/C: 164 % of control and 221 % of control
endpoint: mean survival time, dose: 27.5 mg/kg/injection, schedule: Q01DX001 (oral), vehicle: other
  T/C: 315 % of control and 337 % of control and 442 % of control
endpoint: mean survival time, dose: 30.5 mg/kg/injection, schedule: Q01DX001 (ip), vehicle: carboxymethylcellulose (CMC)
  T/C: 163 % of control
endpoint: mean survival time, dose: 30.5 mg/kg/injection, schedule: Q01DX001 (ip), vehicle: other
  T/C: 278 % of control and 293 % of control and 361 % of control
endpoint: mean survival time, dose: 40.0 mg/kg/injection, schedule: Q01DX001 (ip), vehicle: carboxymethylcellulose (CMC)
  T/C: 228 % of control and 310 % of control
endpoint: mean survival time, dose: 41.0 mg/kg/injection, schedule: Q01DX001 (ip), vehicle: other
  T/C: 317 % of control and 391 % of control
endpoint: mean survival time, dose: 46.0 mg/kg/injection, schedule: Q01DX001 (ip), vehicle: carboxymethylcellulose (CMC)
  T/C: 284 % of control
endpoint: mean survival time, dose: 55.0 mg/kg/injection, schedule: Q01DX001 (oral), vehicle: other
  T/C: 184 % of control and 271 % of control and 351 % of control
endpoint: mean survival time, dose: 60.0 mg/kg/injection, schedule: Q01DX001 (ip), vehicle: carboxymethylcellulose (CMC)
  T/C: 297 % of control
endpoint: mean survival time, dose: 61.0 mg/kg/injection, schedule: Q01DX001 (ip), vehicle: carboxymethylcellulose (CMC)
  T/C: 274 % of control
endpoint: mean survival time, dose: 61.0 mg/kg/injection, schedule: Q01DX001 (ip), vehicle: other
  T/C: 178 % of control and 254 % of control
endpoint: mean survival time, dose: 83.0 mg/kg/injection, schedule: Q01DX001 (ip), vehicle: other
  T/C: 270 % of control and 419 % of control

## COC(=O)c1ccccc1N=NN(C)C
endpoint: median survival time, dose: 10.0 mg/kg/injection, schedule: Q01DX009 (ip), vehicle: saline with Tween-80
  T/C: 114 % of control
endpoint: median survival time, dose: 20.0 mg/kg/injection, schedule: Q01DX009 (ip), vehicle: saline with Tween-80
  T/C: 97 % of control

## N#Cc1ccc(NC(=O)N(CCCl)N=O)cc1
endpoint: mean survival time, dose: 9.37 mg/kg/injection, schedule: Q01DX001 (ip), vehicle: carboxymethylcellulose (CMC)
  T/C: 95 % of control
endpoint: mean survival time, dose: 18.75 mg/kg/injection, schedule: Q01DX001 (ip), vehicle: carboxymethylcellulose (CMC)
  T/C: 91 % of control
endpoint: mean survival time, dose: 37.5 mg/kg/injection, schedule: Q01DX001 (ip), vehicle: carboxymethylcellulose (CMC)
  T/C: 104 % of control
endpoint: mean survival time, dose: 75.0 mg/kg/injection, schedule: Q01DX001 (ip), vehicle: carboxymethylcellulose (CMC)
  T/C: 102 % of control
endpoint: mean survival time, dose: 150.0 mg/kg/injection, schedule: Q01DX001 (ip), vehicle: carboxymethylcellulose (CMC)
  T/C: 90 % of control

## CN(Cc1cnc2nc(N)nc(N)c2n1)c1ccc(C(=O)N[C@@H](CCC(=O)O)C(=O)O)cc1
endpoint: mean survival time, dose: 0.6 mg/kg/injection, schedule: Q01DX009 (ip), vehicle: saline
  T/C: 158 % of control
endpoint: mean survival time, dose: 1.25 mg/kg/injection, schedule: Q01DX009 (ip), vehicle: other
  T/C: 150 % of control
endpoint: mean survival time, dose: 1.25 mg/kg/injection, schedule: Q01DX009 (ip), vehicle: saline
  T/C: 168 % of control
endpoint: mean survival time, dose: 2.5 mg/kg/injection, schedule: Q01DX009 (ip), vehicle: saline
  T/C: 112 % of control
endpoint: mean survival time, dose: 3.0 mg/kg/injection, schedule: Q01DX009 (ip), vehicle: sodium bicarbonate
  T/C: 108 % of control
endpoint: mean survival time, dose: 5.0 mg/kg/injection, schedule: Q01DX009 (ip), vehicle: saline
  T/C: 95 % of control
endpoint: mean survival time, dose: 5.0 mg/kg/injection, schedule: Q01DX009 (ip), vehicle: sodium bicarbonate
  T/C: 94 % of control
endpoint: mean survival time, dose: 8.0 mg/kg/injection, schedule: Q01DX001 (ip), vehicle: sodium bicarbonate
  T/C: 111 % of control
endpoint: mean survival time, dose: 14.0 mg/kg/injection, schedule: Q04DX003 (ip), vehicle: sodium bicarbonate
  T/C: 113 % of control
endpoint: mean survival time, dose: 16.0 mg/kg/injection, schedule: Q01DX001 (ip), vehicle: sodium bicarbonate
  T/C: 114 % of control
endpoint: mean survival time, dose: 19.0 mg/kg/injection, schedule: Q01DX001 (ip), vehicle: water
  T/C: 108 % of control
endpoint: mean survival time, dose: 23.0 mg/kg/injection, schedule: Q04DX003 (ip), vehicle: sodium bicarbonate
  T/C: 112 % of control
endpoint: mean survival time, dose: 29.0 mg/kg/injection, schedule: Q01DX001 (ip), vehicle: water
  T/C: 111 % of control
endpoint: mean survival time, dose: 32.0 mg/kg/injection, schedule: Q01DX001 (ip), vehicle: sodium bicarbonate
  T/C: 117 % of control
endpoint: mean survival time, dose: 39.0 mg/kg/injection, schedule: Q04DX003 (ip), vehicle: sodium bicarbonate
  T/C: 115 % of control
endpoint: mean survival time, dose: 43.0 mg/kg/injection, schedule: Q01DX001 (ip), vehicle: water
  T/C: 113 % of control
endpoint: mean survival time, dose: 64.0 mg/kg/injection, schedule: Q01DX001 (ip), vehicle: sodium bicarbonate
  T/C: 121 % of control
endpoint: mean survival time, dose: 65.0 mg/kg/injection, schedule: Q04DX003 (ip), vehicle: sodium bicarbonate
  T/C: 100 % of control
endpoint: mean survival time, dose: 128.0 mg/kg/injection, schedule: Q01DX001 (ip), vehicle: sodium bicarbonate
  T/C: 109 % of control
endpoint: median survival time, dose: 0.5 mg/kg/injection, schedule: Q01DX009 (ip), vehicle: sodium bicarbonate
  T/C: 102 % of control
endpoint: median survival time, dose: 1.0 mg/kg/injection, schedule: Q01DX009 (ip), vehicle: sodium bicarbonate
  T/C: 113 % of control

## O=NN(CCCl)C(=O)Nc1ccc2ccccc2c1
endpoint: mean survival time, dose: 137.0 mg/kg/injection, schedule: Q01DX001 (ip), vehicle: carboxymethylcellulose (CMC)
  T/C: 115 % of control
endpoint: mean survival time, dose: 200.0 mg/kg/injection, schedule: Q01DX001 (ip), vehicle: carboxymethylcellulose (CMC)
  T/C: 103 % of control
endpoint: mean survival time, dose: 300.0 mg/kg/injection, schedule: Q01DX001 (ip), vehicle: carboxymethylcellulose (CMC)
  T/C: 108 % of control

## O=C(Nc1ccc(C2=NCCN2)cc1)c1ccc(C(=O)Nc2ccc(C3=NCCN3)cc2)cc1
endpoint: mean survival time, dose: 50.0 mg/kg/injection, schedule: Q01DX Z (ip), vehicle: carboxymethylcellulose (CMC)
  T/C: 107 % of control
endpoint: mean survival time, dose: 100.0 mg/kg/injection, schedule: Q01DX Z (ip), vehicle: carboxymethylcellulose (CMC)
  T/C: 110 % of control
endpoint: mean survival time, dose: 200.0 mg/kg/injection, schedule: Q01DX Z (ip), vehicle: carboxymethylcellulose (CMC)
  T/C: 121 % of control
endpoint: mean survival time, dose: 250.0 mg/kg/injection, schedule: Q01DX Z (ip), vehicle: carboxymethylcellulose (CMC)
  T/C: 116 % of control
endpoint: mean survival time, dose: 375.0 mg/kg/injection, schedule: Q01DX Z (ip), vehicle: carboxymethylcellulose (CMC)
  T/C: 97 % of control

## S=c1nc[nH]c2nc[nH]c12
endpoint: mean survival time, dose: 5.0 mg/kg/injection, schedule: Q01DX009 (ip), vehicle: alkali diluted with saline
  T/C: 122 % of control
endpoint: mean survival time, dose: 6.0 mg/kg/injection, schedule: Q01DX015 (ip), vehicle: alkali diluted with saline
  T/C: 114 % of control
endpoint: mean survival time, dose: 9.0 mg/kg/injection, schedule: Q01DX015 (ip), vehicle: alkali diluted with saline
  T/C: 120 % of control
endpoint: mean survival time, dose: 14.0 mg/kg/injection, schedule: Q01DX015 (ip), vehicle: alkali diluted with saline
  T/C: 120 % of control
endpoint: mean survival time, dose: 60.0 mg/kg/injection, schedule: Q01DX001 (ip), vehicle: alkali diluted with saline
  T/C: 111 % of control
endpoint: mean survival time, dose: 80.0 mg/kg/injection, schedule: Q01DX009 (ip), vehicle: alkali diluted with saline
  T/C: 181 % of control
endpoint: mean survival time, dose: 90.0 mg/kg/injection, schedule: Q01DX001 (ip), vehicle: alkali diluted with saline
  T/C: 117 % of control
endpoint: mean survival time, dose: 135.0 mg/kg/injection, schedule: Q01DX001 (ip), vehicle: alkali diluted with saline
  T/C: 115 % of control
endpoint: median survival time, dose: 100.0 mg/kg/injection, schedule: Q01DX001 (oral), vehicle: saline with Tween-80
  T/C: 115 % of control
endpoint: median survival time, dose: 200.0 mg/kg/injection, schedule: Q01DX001 (oral), vehicle: saline with Tween-80
  T/C: 113 % of control
endpoint: median survival time, dose: 400.0 mg/kg/injection, schedule: Q01DX001 (oral), vehicle: saline with Tween-80
  T/C: 118 % of control

## CCCCCCCCCCCCCCCCCCCCCC(=O)Nc1ccn(C2OC(CO)C(O)C2O)c(=O)n1 (stereo unspecified)
endpoint: median survival time, dose: 25.0 mg/kg/injection, schedule: Q01DX009 (ip), vehicle: saline with Tween-80
  T/C: 208 % of control
endpoint: median survival time, dose: 50.0 mg/kg/injection, schedule: Q01DX009 (ip), vehicle: saline with Tween-80
  T/C: 162 % of control
endpoint: median survival time, dose: 100.0 mg/kg/injection, schedule: Q01DX009 (ip), vehicle: saline with Tween-80
  T/C: 198 % of control
endpoint: median survival time, dose: 200.0 mg/kg/injection, schedule: Q01DX009 (ip), vehicle: saline with Tween-80
  T/C: 250 % of control
endpoint: median survival time, dose: 400.0 mg/kg/injection, schedule: Q01DX009 (ip), vehicle: saline with Tween-80
  T/C: 96 % of control
